Consider three molecules from patent publication US6060516A, “N^1 -propargylhydrazines, N^2 -propargylhydrazines and their analogs for the treatment of depression, anxiety and neurodegeneration” (CV Technologies, Inc., priority 1998, dated 2000).

Assay [1] deals with T1, rat brain monoamine oxidase-B (Rattus norvegicus, UniProt P19643).
T1 construct: appropriately diluted homogenates of rat brain or liver; from tissue; host or cells: rat brain or liver homogenate
T1 sequence (P19643 1-520): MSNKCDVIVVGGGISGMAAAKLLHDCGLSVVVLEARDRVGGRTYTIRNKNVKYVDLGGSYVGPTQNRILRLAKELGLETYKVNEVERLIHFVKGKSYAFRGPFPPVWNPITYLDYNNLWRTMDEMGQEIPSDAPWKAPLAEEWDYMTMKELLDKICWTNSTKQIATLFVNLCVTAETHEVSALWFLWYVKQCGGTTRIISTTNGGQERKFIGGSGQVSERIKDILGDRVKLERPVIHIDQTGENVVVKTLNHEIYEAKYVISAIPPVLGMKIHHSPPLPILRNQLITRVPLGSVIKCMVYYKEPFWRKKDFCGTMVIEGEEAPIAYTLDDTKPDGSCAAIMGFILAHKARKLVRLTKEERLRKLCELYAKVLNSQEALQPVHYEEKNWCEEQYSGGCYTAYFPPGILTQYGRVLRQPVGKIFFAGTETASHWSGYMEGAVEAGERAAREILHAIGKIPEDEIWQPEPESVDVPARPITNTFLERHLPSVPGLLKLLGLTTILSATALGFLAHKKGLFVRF
Kind of assay: Monoamine oxidase-B inhibiting activity in vitro (radiochemical, β-phenylethylamine substrate, rat brain homogenate). The conditions noted are these: for inhibition at 100 µM: 1 × 10^-4 M; for inhibition at 10 µM: 1 × 10^-5 M; for inhibition at 1 µM: 1 × 10^-6 M; for inhibition at 0.1 µM: 1 × 10^-7 M; for inhibition at 0.01 µM: 1 × 10^-8 M. The format is biochemical. On the procedure:
Radiolabelled β-phenylethylamine was employed as a substrate for monoamine oxidase-B. Various concentrations of the compounds of interest were incubated in appropriately diluted homogenates of rat brain or liver in a 0.2 M potassium phosphate buffer. Incubations proceeded at 37° C. for 10 minutes. Incubation was terminated by the addition of acid and the radiolabelled product (phenylacetaldehyde and phenylacetic acid) was extracted and quantified by liquid scintillation counting procedures. Incubations were done in triplicate and incubations containing phenelzine were included for comparison. The percent inhibition of monoamine oxidase-B activity compared to controls containing no drug was calculated.

For assay [2], the system named is DSP-4 induced noradrenaline depletion in mouse hippocampus. Kind of assay: Prevention of DSP-4 induced noradrenaline depletion in mouse hippocampus. The format is in vivo. Conditions: for protection against DSP-4 induced noradrenaline depletion / neuroprotective effect: 10 mg/kg, mouse hippocampus, in words. As to the method: Neuroprotectant activity was evaluated by examining the prevention of DSP-4 induced noradrenaline depletion in mouse hippocampus as described in Yu, P. H., Davis, B. A., Fang, J. and Boulton, A. A. (1994), Neuroprotective effect of some monoamine oxidase-B inhibitors against DSP-4 induced noradrenaline depletion in the mouse hippocampus, J. Neurochem. 63: 1820-1828. Briefly, mice were injected (i.p.) with either 20% DMSO or potential neuroprotectants (10 mg/kg in 20% DMSO). One hour later they were injected with either water or DSP-4 (50 mg/kg in water). One week later the mice were killed and the brains removed and the hippocampus dissected out. The hippocampus was frozen and saved for estimation of noradrenaline and other aminergic neurotransmitters and their metabolites as in Sloley, B. D. and Goldberg J. I. (1991), Determination of γ-glutamyl conjugates of monoamines by means of high-performance liquid chromatography with electrochemical detection and application to gastropod tissues, J. Chromatog. 567: 49-56. The rest of the brain was frozen and retained for estimation of monoamine oxidase activities ex vivo as described earlier.

Another assay deals with MAO-B. Nature of the assay: MAO-B inhibition ex vivo in DSP-4 treated mice (brain). On the set-up: species or system mouse. As to the method: Biochem. Pharmacol. 31: 1417-1424. Radiolabelled β-phenylethylamine was employed as a substrate for monoamine oxidase-B. The compounds of interest were either injected intraperitoneally in DMSO or administered by gavage in water for various periods. The animals were killed by decapitation and the brains and livers immediately removed and frozen until assayed for monoamine oxidase-B activity. Tissues were homogenized and appropriately diluted in buffer prior to incubation. Incubations proceeded at 37° C. for 10 minutes. Incubation was terminated by the addition of acid and the radiolabelled product (phenylacetic acid) was extracted and quantified by liquid scintillation counting procedures. Incubations were done in triplicate and incubations containing phenelzine were included for comparison. The percent inhibition of monoamine oxidase-B activity compared to controls containing no drug was calculated.
Neuroprotectant activity was evaluated by examining the prevention of DSP-4 induced noradrenaline depletion in mouse hippocampus as described in Yu, P. H., Davis, B. A., Fang, J. and Boulton, A. A. (1994), Neuroprotective effect of some monoamine oxidase-B inhibitors against DSP-4 induced noradrenaline depletion in the mouse hippocampus, J. Neurochem. 63: 1820-1828. Briefly, mice were injected (i.p.) with either 20% DMSO or potential neuroprotectants (10 mg/kg in 20% DMSO). […]

Assay [3] deals with serotonin uptake in rat striatal prisms. Nature of the assay: Serotonin (5-HT) uptake inhibition in rat striatal prisms in vitro. The format is biochemical. As to the method:
CVT-P040 was evaluated for the ability to inhibit serotonin uptake in rat striatal prisms using the procedure of Martin, I. L., Baker, G. B. and Mitchell, P. R. (1978), The effect of viloxazine hydrochloride on the transport of noradrenaline, dopamine, 5-hydroxytryptamine and γ-aminobutyric acid in rat brain tissue Neuropharmacology 17: 421-423. Briefly, untreated rats were killed by guillotine decapitation, their brains removed, placed on an ice-cooled plate and the striatum was dissected out from the rest of the brain. The striatum was then chopped into 0.1×0.1×2 mm prisms using a Mcllwain tissue chopper and suspended in 5 volumes incubation medium containing 123 mM sodium chloride, 5 mM potassium chloride, 2.7 mM calcium chloride, 1.2 mM magnesium sulphate, 20 mM TRIS-HCl buffer (pH 7.5), 1 mM ascorbic acid, 10 mM glucose and 12.5 μM nialamide. The suspension was stored out of direct light and buried in ice. Aliquots (1 ml) of the tissue suspension were added to flasks containing 4 ml of incubation medium and this mixture was incubated for 15 min at 37° C. in a shaking water bath. Next, 10 µl of the appropriate chemical was added to each tube except the blanks and controls, followed by the addition of 10 μl of ^3 H-5-HT (final concentration 0.1 μM). The mixtures were incubated for 5 min at 37° C., then quickly filtered with a Millipore vacuum filter apparatus and rinsed two times with 5 ml warm (37° C.) incubation medium. Filters were transferred to scintillation vials and 10 ml Ready Safe scintillation cocktail was added to each. Radioactive content per tube was counted using a liquid scintillation spectrophotometer. Percent 5-HT uptake inhibition was calculated by applying the following equation: [formula]

Assay [4] has as its system NA, DA, 5-HT, 5-HIAA and DOPAC concentrations in rat hypothalamus. Kind of assay: Rat hypothalamus amine and amine metabolite concentrations. The class given is in vivo. The conditions noted are these: 2 × 75 μmol/kg per os.
For assay [5], the system named is valine, alanine and gamma-aminobutyric acid (GABA) concentrations in rat brain. Kind of assay: Brain valine, alanine and gamma-aminobutyric acid (GABA) concentrations. The class given is in vivo. The conditions noted are these: for GABA / Valine: 2 × 75 μmol/kg per os.
Setting [6] is: 10 mg/kg i.p. then DSP-4 50 mg/kg, 20% DMSO control experiment.

Structures are written as SMILES.

A word on the inhibition: it is the relative decrease from the control value, in per cent. Take `C#CCN(CCc1ccccc1)NC(C)=O` [CVT-P041, N^1 -propargyl-N^2 -acetylphenelzine]: in assay [1], the inhibition at 100 µM worked out at 92.7%, the inhibition at 10 µM was determined as 71.3%, the inhibition at 1 µM is 28.8% and the inhibition at 0.1 µM was found to be 6.2%. In assay [1], the inhibition at 0.01 µM is -2%. Also, in assay [2], the “protection against DSP-4 induced noradrenaline depletion / neuroprotective effect” value is “did not exhibit a neuroprotective effect”. Besides, the “MAO-B % Inhibition” value in the assay with MAO-B (10 mg/kg then DSP-4 50 mg/kg, saline control experiment) is -3.7%. Moreover, the “% Inhibition (serotonin uptake)” value in assay [3] (1 × 10^-4 M) amounted to 22.2 ± 4.6%. Moreover, in assay [4], the 5-HT is recorded as 946 ng/g and the DA was 553 ± 129 ng/g. In assay [5], this molecule yielded a GABA of 300 ± 22 µg/g and a Valine of 26.4 ± 1.4 µg/g.
In the case of `NNCCc1ccccc1` [phenelzine, 1-(2-phenyl) ethylhydrazine, reference compound], in assay [1], the inhibition at 100 µM turned out to be 100%, the inhibition at 10 µM was determined as 100%, the inhibition at 1 µM was 90.1% and the inhibition at 0.1 µM was found to be 18.3%. In assay [1], the inhibition at 0.01 µM amounted to 6.9%. For the same molecule, in assay [4], the 5-HT was 1232 ± 87 ng/g and the DA worked out at 607 ± 103 ng/g. In assay [5], this molecule yielded a GABA of 733 µg/g and a Valine of 24.3 ± 0.8 µg/g. For the same molecule, the “elevation of alanine levels” value in assay [5] (phenelzine) is recorded as “about 4 fold”. Also, the “brain GABA concentrations” value in assay [5] (phenelzine 150 pmol/kg (so in the source), in words) is given as “caused elevations in brain GABA concentrations”.
In the case of `C#CCN(N)CCc1ccccc1` [CVT-P040, N^1 -propargylphenelzine], in assay [1], the inhibition at 100 µM stood at 99.7%, the inhibition at 10 µM came out at 97.9%, the inhibition at 1 µM came to 88.8% and the inhibition at 0.1 µM was determined as 59.8%. In assay [1], the inhibition at 0.01 µM turned out to be 19.9%. Also, in assay [2] (setting [6]), the “% NA Restoration” value is 55.4% and the NA was 235 ± 26 ng/g. For the same molecule, the “protection against DSP-4 induced noradrenaline depletion / neuroprotective effect” value in assay [2] is “significantly protected against DSP-4 induced noradrenaline depletion”. Also, in the assay with MAO-B (setting [6]), the “MAO-B % Inhibition” value is 20.3%. In assay [3] (1 × 10^-4 M), the “% Inhibition (serotonin uptake)” value came out at 90.1 ± 3.3%. Moreover, the “% Inhibition (serotonin uptake)” value in assay [3] (1 × 10^-5 M) turned out to be 50.2 ± 2.5%. In addition, in assay [3] (1 × 10^-6 M), the “% Inhibition (serotonin uptake)” value worked out at 49.1 ± 4.3%. In assay [5], the GABA came to 329 ± 43 µg/g and the Valine is 25.4 ± 1.8 µg/g.
